Results published in patent US9758480B2, “1-(cycloalkyl-carbonyl)proline derivative” (SUMITOMO DAINIPPON PHARMA CO., LTD., priority 2012, dated 2017).
Counter-ions that a name gives are not always drawn.

What was measured:
[1] = Ester metabolism stabilization test: human liver stabilization test; assay type: in vitro ADME; details: human liver S9, NADPH, 37° C., 30 minutes
Method: A reaction solution prepared by mixing 5 μL of human liver S9 (manufactured by Xenotech, 20 mg/mL), 20 μL of 500 mmol/L Kpi (pH7.4), 40 μL of 5 mmol/L NADPH (manufactured by Oriental Yeast Co., Ltd.) aqueous solution, and 133 μL of ion exchange water was added to 2 μL of a DMSO solution containing 100 μmol/L test substance, and the thus obtained mixture was then incubated at 37° C. for 30 minutes. After completion of the incubation, 600 μL of acetonitrile was added to the reaction solution, so that the metabolic reaction was terminated. The residual percentage of the test substance was measured using LC (LC-20A manufactured by Shimadzu Corporation) and -MS (API4000 manufactured by AB Sciex). • (2) Stabilization in Human Plasma Test

human FXIa = human FXIa (Homo sapiens (Human), UniProt P03951); assay: In vitro activated factor XI (FXIa) inhibition test; assay type: biochemical; details: 0.35 μg/mL human FXIa, substrate S-2366 300 μmol/L, 37° C., 10 minutes, OD 405 nm; read-out: FXIa inhibitory activity IC50
Method: To the substrate, S-2366 (pyroGlu-Pro-Arg-pNA.HCl) was added to a final concentration of 300 μmol/L. After the reaction had progressed, the absorbance at OD 405 nm was measured.

[2] = tested on: rabbit model with venous thrombus; assay: Rabbit in vivo antithrombotic action evaluation test (venous thrombus model), thrombus weight; details: i.v.
Description: A rabbit model with venous thrombus was produced by modifying the report of Wienen et al. (Wienen W. et al., J. Thromb. Haemost. 5:1237-1242 (2007)). A male rabbit (JW, 2-4 kg) was narcotized by inhalation of isoflurane (ISOFLU®, manufactured by DS Pharma Animal Health) (inductive anesthesia: 4%, continuous anesthesia: 1.5% to 2.5%). For intravenous administration of a test agent and blood collection, catheters were inserted into the left femoral vein and the left femoral artery. The left external jugular vein was exposed (2 cm) from a branch of the facial vein, the microvascular branch was then ligated, and a catheter was then inserted into the posterior facial vein. The external jugular vein (2 cm) exposed from each of an anterior facial vein branch and a facial vein branch was ligated with an artery clamp, and blood was then removed from a catheter left in the posterior facial vein. Blood in the blood vessel was washed with a normal saline, and 0.5% polidocanol (manufactured by Sigma) was injected into the blood vessel. It was then left for 5 minutes, so that the occurrence of a disorder in vascular endothelium was provoked. Thereafter, 0.5% polidocanol was removed, the inside of the blood vessel was then washed with a normal saline, and the artery clamp was then removed. The external jugular vein (2 cm) exposed from the facial vein branch, together with an injection needle 21G (manufactured by Terumo), was ligated with a silk thread, so that the inner diameter of the blood vessel was reduced to 0.8 mm. Twenty-five minutes after recirculation of the blood flow, the external jugular vein (2 cm) exposed from the facial vein branch was excised, and the wet weight and dry weight of a thrombus formed in the blood vessel were measured. A test agent or a vehicle was administered to the rabbit 2 minutes before recirculation of the blood flow.

[3] = tested on: endogenous coagulation pathway; assay: Activated partial thromboplastin time (aPTT) of blood sample in rabbit antithrombotic test; assay type: in vivo; details: i.v.
Method: In order to measure the activated partial thromboplastin time (aPTT) of the blood sample, which was to be used as an indicator of an endogenous coagulation pathway, 2 minutes after the administration of the test agent or the vehicle, blood was collected, and plasma was then prepared using 3.2% sodium citrate. The prepared plasma was incubated at 37° C. for 7 minutes, and an STA reagent Cephascreen (used for aPTT measurement; manufactured by Roche Diagnostics) was added in an equal amount to the resulting plasma, and the obtained mixture was further incubated for 3 minutes. Thereafter, STA calcium chloride (manufactured by Roche Diagnostics) was added in an equal amount to the resultant, and the time required until coagulation was then measured.

[4] = Ester metabolism stabilization test: stabilization in human plasma test; assay type: in vitro ADME; details: 37° C., 30 minutes
Method: 198 μL of human plasma (manufactured by Cosmo Bio) was added to 2 μL of a DMSO solution containing 100 μmol/L test substance, and the obtained mixture was then incubated at 37° C. for 30 minutes. After completion of the incubation, 600 μL of acetonitrile was added to the reaction solution, so that the metabolic reaction was terminated. The residual percentage of the test substance was measured using LC (LC-20A manufactured by Shimadzu Corporation) and -MS (API4000 manufactured by AB Sciex).

Chain of human FXIa (P03951 388-625): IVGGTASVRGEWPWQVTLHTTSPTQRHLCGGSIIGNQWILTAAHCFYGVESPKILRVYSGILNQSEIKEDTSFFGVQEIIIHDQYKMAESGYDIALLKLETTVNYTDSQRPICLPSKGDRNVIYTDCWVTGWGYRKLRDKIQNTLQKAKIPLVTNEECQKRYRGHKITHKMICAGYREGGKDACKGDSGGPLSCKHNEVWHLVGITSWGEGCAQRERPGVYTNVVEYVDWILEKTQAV
Chain of human FXIa (P03951 19-387 partner): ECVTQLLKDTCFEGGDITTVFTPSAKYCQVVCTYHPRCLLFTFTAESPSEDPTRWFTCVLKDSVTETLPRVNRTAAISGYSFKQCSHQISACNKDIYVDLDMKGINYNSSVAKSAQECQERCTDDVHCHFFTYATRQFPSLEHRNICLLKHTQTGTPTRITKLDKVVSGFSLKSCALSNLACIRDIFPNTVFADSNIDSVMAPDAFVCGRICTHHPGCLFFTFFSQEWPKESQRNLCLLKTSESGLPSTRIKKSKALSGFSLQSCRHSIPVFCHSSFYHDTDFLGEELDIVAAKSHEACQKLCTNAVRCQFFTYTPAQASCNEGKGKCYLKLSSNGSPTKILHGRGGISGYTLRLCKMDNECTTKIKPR

Structure (SMILES): COCCCOC(=O)c1cc2cc(NC(=O)[C@@H]3[C@H](C4CCCCC4)CCN3C(=O)[C@H]3CC[C@H]([C@H](N)CF)CC3)ccc2o1 [Example 82]
- Residual percentage (%) Human liver S9 [1]: 5.8%

Structure (SMILES): N[C@H](CF)[C@H]1CC[C@H](C(=O)N2CC[C@H](c3ccc(F)cc3)[C@H]2C(=O)Nc2ccc3[nH]c(C(=O)O)cc3c2)CC1 [Example 178]
- IC50 (human FXIa): 0.033 µM

Structure (SMILES): CC(OC(=O)OC1CCCCC1)OC(=O)c1cc2cc(NC(=O)[C@@H]3[C@@H](c4ccccc4)CCN3C(=O)[C@H]3CC[C@H]([C@H](N)CF)CC3)ccc2[nH]1 (stereo partly shown) [Example 120]
- Residual percentage (%) Human liver S9 [1]: 4.9%

Structure (SMILES): N[C@H](CF)[C@H]1CC[C@H](C(=O)N2CC[C@@H](c3ccccc3)[C@H]2C(=O)Nc2ccc3[nH]c(C(=O)O)c(Cl)c3c2)CC1 [Example 186]
- IC50 (human FXIa): 0.06 µM

Structure (SMILES): CCC(=O)OC(OC(=O)c1cc2cc(NC(=O)[C@@H]3[C@@H](c4ccccc4)CCN3C(=O)[C@H]3CC[C@H]([C@H](N)CF)CC3)ccc2[nH]1)C(C)C (stereo partly shown) [Example 125]
- Residual percentage (%) Human liver S9 [1]: 5.6%

Structure (SMILES): COc1ccc([C@H]2CCN(C(=O)[C@H]3CC[C@H]([C@H](N)CF)CC3)[C@@H]2C(=O)Nc2ccc3[nH]c(C(=O)O)cc3c2)cc1 [Example 170]
- IC50 (human FXIa): 0.076 µM

Structure (SMILES): CC(C)OC(=O)OC(C)OC(=O)c1cc2cc(NC(=O)[C@@H]3[C@H](C4CCCCC4)CCN3C(=O)[C@H]3CC[C@H]([C@H](N)CF)CC3)ccc2[nH]1 (stereo partly shown) [Example 128]
- Residual percentage (%) Human liver S9 [1]: 47%

Structure (SMILES): Cc1oc(=O)oc1COC(=O)c1cc2cc(NC(=O)[C@@H]3[C@@H](c4ccccc4)CCN3C(=O)[C@H]3CC[C@H]([C@H](N)CF)CC3)ccc2[nH]1 [Example 171]
- Residual percentage (%) Human liver S9 [1]: 18%

Structure (SMILES): CN(C(=O)C1C(c2ccccc2)CCN1C(=O)[C@H]1CC[C@H](CN)CC1)c1ccc2[nH]c(C(=O)O)cc2c1 (stereo partly drawn) [Example 5, 5-{cis-1-[trans-4-(Aminomethyl)cyclohexanecarbonyl]-N-methyl-3-phenylpyrrolidine-2-carboxamide}-1H-indole-2-carboxylic acid trifluoroacetate]
- IC50 (human FXIa): 0.125 µM

Structure (SMILES): COC1CCC([C@@H]2CCN(C(=O)[C@H]3CC[C@H]([C@H](N)CF)CC3)[C@@H]2C(=O)Nc2ccc3oc(C(=O)OCC(C)C)cc3c2)CC1 (stereo partly shown) [Example 201]
- Residual percentage (%) Human liver S9 [1]: 45%

Structure (SMILES): N[C@H](CF)[C@H]1CC[C@H](C(=O)N2CC[C@@H](C3CCCCC3)[C@H]2C(=O)Nc2ccc3[nH]c(C(=O)O)cc3c2)CC1 [Example 99]
- IC50 (human FXIa): 0.006 µM

Structure (SMILES): N[C@H](CF)[C@H]1CC[C@H](C(=O)N2CC[C@@H](C3CCCCC3)[C@H]2C(=O)Nc2ccc3oc(C(=O)OCC4CCOCC4)cc3c2)CC1 [Example 141]
- Residual percentage (%) Human liver S9 [1]: 17%

Structure (SMILES): N[C@H](CF)[C@H]1CC[C@H](C(=O)N2CCC(C3CCCCC3)[C@H]2C(=O)Nc2ccc3oc(C(=O)O)cc3c2)CC1 (single isomer, unassigned) [Example 53]
- Thrombus (% inhibition) ([2]; dose 0.1 mg/kg): 25 % inhibition
- Thrombus (% inhibition) ([2]; dose 0.3 mg/kg): 56 % inhibition
- Thrombus (% inhibition) ([2]; dose 1.0 mg/kg): 79 % inhibition
- Thrombus (% inhibition) ([2]; dose 3.0 mg/kg): 80 % inhibition
- aPTT (% vehicle) ([3]; dose 0.1 mg/kg): 103 % vehicle
- aPTT (% vehicle) ([3]; dose 0.3 mg/kg): 117 % vehicle
- aPTT (% vehicle) ([3]; dose 1.0 mg/kg): 140 % vehicle
- aPTT (% vehicle) ([3]; dose 3.0 mg/kg): 166 % vehicle

Structure (SMILES): Cc1c(C(=O)O)[nH]c2ccc(NC(=O)[C@@H]3[C@H](C4CCCCC4)CCN3C(=O)[C@H]3CC[C@H]([C@H](N)CF)CC3)cc12 [Example 113]
- IC50 (human FXIa): 0.145 µM

Structure (SMILES): CC(C)C(=O)O[C@@H](C)OC(=O)N[C@H](CF)[C@H]1CC[C@H](C(=O)N2CC[C@@H](C3CCCCC3)[C@H]2C(=O)Nc2ccc(-c3nnn[nH]3)cc2)CC1 [Example 205, (1R)-1-({[(1S)-1-(trans-4-{[(2S,3S)-3-Cyclohexyl-2-{[4-(1H-tetrazol-5-yl)phenyl]carbamoyl}pyrrolidin-1-yl]carbonyl}cyclohexyl)-2-fluoroethyl]carbamoyl}oxy)ethyl 2-methylpropanoate]
- Residual percentage (%) Human liver S9 [1]: 3.5%
- Residual percentage (%) Human plasma [4]: 60%

Structure (SMILES): NC(CF)[C@H]1CC[C@H](C(=O)N2CC[C@@H](c3ccc(F)cc3)[C@H]2C(=O)Nc2ccc3[nH]c(C(=O)O)cc3c2)CC1 (stereo partly shown) [Example 38]
- IC50 (human FXIa): 0.03 µM

Structure (SMILES): NC[C@H]1CC[C@H](C(=O)N2CCC(c3ccccc3)[C@H]2C(=O)Nc2ccc3[nH]c(C(=O)O)cc3c2)CC1 (stereo partly shown) [Example 23]
- IC50 (human FXIa): 0.009 µM
